In one experiment the target is T1, human ALK2 R206H (Homo sapiens, UniProt Q04771, R206H).
T1 construct: expressed in transfected cells; host or cells: HEK293 (ATCC CRL1573), lentivirus transduction, blasticidin selection
T1 sequence (Q04771 21-509 R206H): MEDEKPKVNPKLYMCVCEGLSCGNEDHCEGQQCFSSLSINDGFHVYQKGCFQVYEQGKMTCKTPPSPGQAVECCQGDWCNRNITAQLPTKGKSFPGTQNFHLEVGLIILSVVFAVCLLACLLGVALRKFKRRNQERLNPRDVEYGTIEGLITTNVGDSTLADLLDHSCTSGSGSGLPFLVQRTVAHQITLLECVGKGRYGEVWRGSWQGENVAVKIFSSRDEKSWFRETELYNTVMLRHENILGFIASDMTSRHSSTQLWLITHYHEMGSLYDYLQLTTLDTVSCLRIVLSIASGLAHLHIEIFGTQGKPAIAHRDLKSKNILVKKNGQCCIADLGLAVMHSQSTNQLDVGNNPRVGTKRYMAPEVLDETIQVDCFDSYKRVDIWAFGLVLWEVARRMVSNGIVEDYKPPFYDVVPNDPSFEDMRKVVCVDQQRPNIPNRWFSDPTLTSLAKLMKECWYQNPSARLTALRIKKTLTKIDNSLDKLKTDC
Put plainly: Cell-based ALK2-R206H cell activity assay (Smad1-Ser463/Ser465 phosphorylation by AlphaLISA in HEK293-ALK2-R206H cells). The following applies: read-out: Cell Line (Cell Assay IC50). An outline of the steps:
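Stable HEK293 cells expressing C-terminally FLAG-tagged human ALK2 R206H (lentiviral, blasticidin-selected) were treated with compounds in 10-point, 3-fold dilutions from 10 μM or 1 μM top, in duplicate. Smad1 Ser463/Ser465 phosphorylation was read by AlphaLISA.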

For experiment [1], the target named is T2, ALK2 R206H (GST-tagged mutant ALK2) (Homo sapiens, UniProt Q04771, R206H).
T2 construct: purchased Carna Bioscience or ThermoFisher 09-148 or PV6232
T2 sequence (Q04771 21-509 R206H): T1 sequence (Q04771 21-509 R206H)
Nature of the experiment: ALK binding assay (LANTHASCREEN TR-FRET competitive binding, displacement of Kinase Tracer 178). The following applies: ALK2 R206H, LANTHASCREEN TR-FRET competitive binding; read-out: Binding Assay (IC50).

Consider `CC(C)N1CCC[C@H](c2ccc(-c3cc4c(N5CCN(C(=O)NCCC#N)CC5)ccnn4c3)cc2)C1` [Compound 618], for which the IC50 on human ALK2 R206H is < 100 nM; in experiment [1], < 10 nM.
The corresponding values for `CC(C)N1CCN(C)[C@](C)(c2ccc(-c3cc4c(N5CCN(C(=O)C6CC6)CC5)ccnn4c3)cc2)C1` [Compound 619] are < 100 nM and < 10 nM.
The like results for `CC(C)N1CCN(C)[C@@](C)(c2ccc(-c3cc4c(N5CCN(C(=O)C6CC6)CC5)ccnn4c3)cc2)C1` [Compound 620] were, in that order, < 100 nM and < 10 nM.
Regarding `CC(C)N1CCC(c2ccc(-c3cc4c(N5CCN(C(=O)OC6CCC6)CC5)ccnn4c3)cc2)CC1` [Compound 621], the IC50 is 100 to 500 nM at human ALK2 R206H and < 10 nM in experiment [1].
Regarding `COC(=O)NC1(c2ccc(-c3cc4c(N5CCN(C(=O)C6CC6)CC5)ccnn4c3)cc2)CCNCC1` [Compound 622], the results for the 50% inhibitory concentration (IC50) (at human ALK2 R206H; in experiment [1]) were > 500 nM and < 10 nM, respectively.
The corresponding values for `CC(C)N1CC2(CN(c3ccc(-c4cc5c(N6CCN(C(=O)[C@H]7C[C@@H]7F)CC6)ccnn5c4)cc3)C2)C1` [Compound 623] are 100 to 500 nM and < 10 nM.
With `COC1(c2ccc(-c3cc4c(N5CCN(C(=O)C6CC6)CC5)ccnn4c3)nc2)CCN(C(C)C)CC1` [Compound 624], the values for the IC50 (at human ALK2 R206H; in experiment [1]) were < 100 nM and < 10 nM, respectively.
The like results for `CO[C@@]1(c2ccc(-c3cc4c(N5CCN(C(=O)C6CC6)CC5)ccnn4c3)nc2)CCCN(C(C)C)C1` [Compound 625] were, in that order, < 100 nM and < 10 nM.
Take `CO[C@]1(c2ccc(-c3cc4c(N5CCN(C(=O)C6CC6)CC5)ccnn4c3)nc2)CCCN(C(C)C)C1` [Compound 626]: the IC50 on human ALK2 R206H was < 100 nM; in experiment [1] it was < 10 nM.
The corresponding values for `CC(C)N1CCC(c2ccc(-c3cc4c(N5CCN(C(=O)NC6COC6)CC5)ccnn4c3)cc2)CC1` [Compound 627] are < 100 nM and < 10 nM.
The corresponding values for `CC(C)NC(=O)N1CCN(c2ccnn3cc(-c4ccc(C5(C)CCN(C(C)C)CC5)cc4)cc23)CC1` [Compound 628] are < 100 nM and < 10 nM.
The like results for `CC(C)N1CCC(c2ccc(-c3cc4c(N5CCN(C(=O)OC6COC6)CC5)ccnn4c3)cc2)CC1` [Compound 629] were, in that order, < 100 nM and < 10 nM.
As to `CC(C)N1CCC[C@H](c2ccc(-c3cc4c(N5CCN(C(=O)OC6COC6)CC5)ccnn4c3)cc2)C1` [Compound 630], the IC50 on human ALK2 R206H is < 100 nM; in experiment [1], < 10 nM.
Consider `CC(C)N1CCC[C@@H](c2ccc(-c3cc4c(N5CCN(C(=O)OC6COC6)CC5)ccnn4c3)cc2)C1` [Compound 631, (S)-oxetan-3-yl 4-(6-(4-(1-isopropylpiperidin-3-yl)phenyl)pyrrolo[1,2-b]pyridazin-4-yl)piperazine-1-carboxylate], for which the concentration for half-maximal inhibition (IC50) is < 100 nM on human ALK2 R206H and < 10 nM in experiment [1].
The like results for `CC(C)N1CCC(c2ccc(-c3cc4c(N5CCN(C(=O)OC(C)(C)C)CC5)ccnn4c3)cc2)CC1` [Compound 632] were, in that order, 100 to 500 nM and < 10 nM.
In the case of `CC(C)NC(=O)N1CCN(c2ccnn3cc(-c4ccc([C@@]5(C)CN(C(C)C)CCN5)cc4)cc23)CC1` [Compound 633], the IC50 was < 100 nM on human ALK2 R206H and < 10 nM in experiment [1].
Take `CC(C)NC(=O)N1CCN(c2ccnn3cc(-c4ccc([C@]5(C)CN(C(C)C)CCN5)cc4)cc23)CC1` [Compound 634]: the IC50 at human ALK2 R206H is < 100 nM; in experiment [1], < 10 nM.
For the compound `CC(C)N1CCC[C@@H](c2ccc(-c3cc4c(N5CCN(C(=O)OC6COC6)CC5)ccnn4c3)nc2)C1` [Compound 635], the results for the IC50 (on human ALK2 R206H; in experiment [1]) were < 100 nM and < 10 nM, respectively.
The corresponding values for `CC(C)N1CCC[C@H](c2ccc(-c3cc4c(N5CCN(C(=O)OC6COC6)CC5)ccnn4c3)nc2)C1` [Compound 636] are < 100 nM and < 10 nM.
The corresponding values for `CO[C@]1(c2ccc(-c3cc4c(N5CCN(C(=O)NC(C)C)CC5)ccnn4c3)cc2)CCN(C(C)C)C1` [Compound 637] are < 100 nM and < 10 nM.
Consider `CO[C@@]1(c2ccc(-c3cc4c(N5CCN(C(=O)NC(C)C)CC5)ccnn4c3)cc2)CCN(C(C)C)C1` [Compound 638], for which the IC50 is < 100 nM at human ALK2 R206H and < 10 nM in experiment [1].
The like results for `CCOC(=O)N1CCN(c2ccnn3cc(-c4ccc([C@]5(C)CN(C(C)C)CCN5C)cc4)cc23)CC1` [Compound 641] were, in that order, < 100 nM and < 10 nM.
The like results for `CCOC(=O)N1CCN(c2ccnn3cc(-c4ccc([C@@]5(C)CN(C(C)C)CCN5C)cc4)cc23)CC1` [Compound 642] were, in that order, < 100 nM and < 10 nM.
The corresponding values for `CCOC(=O)N1CCN(c2ccnn3cc(-c4ccc(C5(OC)CCN(C(C)C)CC5)cc4)cc23)CC1` [Compound 643] are < 100 nM and < 10 nM.
For `CCNC(=O)N1CCN(c2ccnn3cc(-c4ccc(C5(OC)CCN(C(C)C)CC5)cn4)cc23)CC1` [Compound 644], the values for the 50% inhibitory concentration (IC50) (at human ALK2 R206H; in experiment [1]) were < 100 nM and < 10 nM, respectively.
`CCNC(=O)N1CCN(c2ccnn3cc(-c4ccc([C@]5(OC)CCCN(C(C)C)C5)cn4)cc23)CC1` [Compound 645]: the IC50 on human ALK2 R206H is < 100 nM; in experiment [1], < 10 nM.
For `CCNC(=O)N1CCN(c2ccnn3cc(-c4ccc([C@@]5(OC)CCCN(C(C)C)C5)cn4)cc23)CC1` [Compound 646], the results for the IC50 (at human ALK2 R206H; in experiment [1]) were < 100 nM and < 10 nM, respectively.
The like results for `CCOC1(c2ccc(-c3cc4c(N5CCN(C(=O)OC6COC6)CC5)ccnn4c3)nc2)CCNCC1` [Compound 647] were, in that order, < 100 nM and < 10 nM.
The corresponding values for `CC(C)NC(=O)N1CCN(c2ccnn3cc(-c4ccc(C5(F)CCN(C(C)C)CC5)cc4)cc23)CC1` [Compound 648] are < 100 nM and < 10 nM.
Turning to `CC(C)NC(=O)N1CCN(c2ccnn3cc(-c4ccc(C5CCN(C(C)C)CC5)cc4F)cc23)CC1` [Compound 649], the IC50 is < 100 nM on human ALK2 R206H and < 10 nM in experiment [1].
The corresponding values for `COC1(c2ccc(-c3cc4c(N5CCN(C(=O)OC6COC6)CC5)ccnn4c3)c(F)c2)CCNCC1` [Compound 650] are < 100 nM and < 10 nM.
Turning to `CCOC(=O)N1CCN(c2ccnn3cc(-c4ccc(C5CCN(C(C)C)CC5)cc4Cl)cc23)CC1` [Compound 651], the 50% inhibitory concentration (IC50) is < 100 nM at human ALK2 R206H and < 10 nM in experiment [1].
Consider `CC(C)N1CCC(c2ccc(-c3cc4c(N5CCN(C(=O)OCC(F)F)CC5)ccnn4c3)cc2)CC1` [Compound 652], for which the IC50 is < 100 nM at human ALK2 R206H and < 10 nM in experiment [1].
Regarding `CC(C)N1CCC[C@@H](c2ccc(-c3cc4c(N5CCN(C(=O)[C@H]6C[C@H](C#N)C6)CC5)ccnn4c3)nc2)C1` [Compound 653], the figures for the IC50 (at human ALK2 R206H; in experiment [1]) were < 100 nM and < 10 nM, respectively.
The corresponding values for `CC(C)N1CCC[C@H](c2ccc(-c3cc4c(N5CCN(C(=O)[C@H]6C[C@H](C#N)C6)CC5)ccnn4c3)nc2)C1` [Compound 654] are < 100 nM and < 10 nM.
The corresponding values for `COC1(c2ccc(-c3cc4c(N5CCN(C(=O)C6CC(C#N)C6)CC5)ccnn4c3)cc2)CN(C(C)C)C1` (stereo not shown) [Compound 655] are < 100 nM and < 10 nM.
The like results for `CCO[C@@]1(c2ccc(-c3cc4c(N5CCN(C(=O)C6CC6)CC5)ccnn4c3)cc2)CCCN(C(C)C)C1` [Compound 656] were, in that order, < 100 nM and < 10 nM.
In the case of `CCO[C@]1(c2ccc(-c3cc4c(N5CCN(C(=O)C6CC6)CC5)ccnn4c3)cc2)CCCN(C(C)C)C1` [Compound 657], the IC50 at human ALK2 R206H is < 100 nM; in experiment [1], < 10 nM.
Consider `CCOC1(c2ccc(-c3cc4c(N5CCN(C(=O)C6CC6)CC5)ccnn4c3)cc2)CCN(C(C)C)CC1` [Compound 658], for which the IC50 on human ALK2 R206H was < 100 nM; in experiment [1], < 10 nM.
The corresponding values for `COC1(c2ccc(-c3cc4c(N5CCN(C(=O)C6CC6)[C@H](C)C5)ccnn4c3)cc2)CCN(C(C)C)CC1` [Compound 659] are < 100 nM and < 10 nM.
The corresponding values for `COC1(c2ccc(-c3cc4c(N5CCN(C(=O)C6CC6)CC5)ccnn4c3)nc2)CCN(C2COC2)CC1` [Compound 660] are < 100 nM and < 10 nM.
The like results for `CC(C)N1CCC(c2ccc(-c3cc4c(N5CCN(C(=O)NCC6COC6)CC5)ccnn4c3)cc2)CC1` [Compound 661] were, in that order, 100 to 500 nM and < 10 nM.
On to `CCOC1(c2ccc(-c3cc4c(N5CCN(C(=O)C6CC6)CC5)ccnn4c3)nc2)CCN(C(C)C)CC1` [Compound 662], for which the figures for the concentration for half-maximal inhibition (IC50) (at human ALK2 R206H; in experiment [1]) were < 100 nM and < 10 nM, respectively.
The corresponding values for `CC(C)[C@@H](C)NC(=O)N1CCN(c2ccnn3cc(-c4ccc(C5CCN(C(C)C)CC5)cc4)cc23)CC1` [Compound 663] are < 100 nM and < 10 nM.

By IC50 is commonly meant the point on the concentration scale where inhibition reaches its midpoint.

The values above are taken from patent US10233186B2, “Inhibitors of activin receptor-like kinase” (BLUEPRINT MEDICINES CORPORATION, priority 2016, dated 2019).
